Holding throughout (assay): NCI tumour cell line growth inhibition, 48 h
In assay [1] the test system is CCRF-CEM leukemia.
The test system of assay [2] is HL-60(TB) leukemia.
The test system of assay [3] is HOP-92 NSCLC.
In assay [4] the test system is LOX IMVI melanoma.
Assay [5] relates to MDA-MB-231 breast.
For assay [6], the system named is NCI-H226 lung.
Assay [7] deals with NCI/ADR-RES ovarian.
In assay [8] the test system is SNB-19 CNS.
Assay [9] has as its system HCC-2998 colon.
Assay [10] concerns SR leukemia.

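These data come from cells grown in 96-well plates and exposed to compound for 48 hours at five concentrations. Abbreviation: GI50, concentration required for 50% inhibition of growth. TGI marks complete inhibition of growth.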

For `COC(=O)Nc1nc2ccc(NC(=O)c3cccs3)cc2[nH]1`, the TGI is greater than 100 µM in [1]; greater than 100 µM in assay [2]; 40.7 µM in assay [3]; greater than 100 µM in [4]; greater than 100 µM in [5]; greater than 100 µM in assay [6]. In addition, the TGI was 55.4 µM in assay [7] and greater than 100 µM in assay [8].

With `O=C1OC2CC=CC1C2` (centres undefined), the TGI in assay [1], in [9], in [2], in assay [3], in assay [4] and in [6] was greater than 100 µM throughout. For the same compound, the TGI in [7] and in assay [8] was greater than 100 µM throughout.

`C=C1C(=O)OC2CC1CCC1(C)OC1CCC(C)=CCCC2(C)O` (centres undefined): the TGI in [1] is 4.56 µM; in assay [9], 15.2 µM; in assay [2], 2.62 µM; in assay [3] it was 5.89 µM; in assay [4], 8.71 µM; in assay [6], 9.17 µM. The TGI came out at 5.84 µM in assay [7] and 39.9 µM in assay [8].

Take `c1ccc(C[N+]23CN4CN(CN(C4)C2)C3)cc1`: the TGI in [1] is 32.9 µM; in [9], 39.9 µM; in assay [2], 57.2 µM; in [3], 70.2 µM; in assay [4] it was 48.2 µM; in assay [5] it was 49.8 µM. Further, the TGI in assay [6] is greater than 100 µM; in assay [7], greater than 100 µM; in [8] it was 71.2 µM.

For the compound `O=C1CCCC2C3CC(CN12)C1CCCCN1C3` (centres undefined), the TGI in assay [1], in assay [9], in assay [2], in assay [3], in assay [4] and in assay [5] was greater than 100 µM throughout. The TGI in [6], in assay [7], in assay [8] and in assay [10] was greater than 100 µM in each case.

For `CN1CC(CNC(=O)OCc2ccccc2)CC2c3cccc4c3c(cn4C)CC21` (centres undefined), the GI50 in assay [1] is 2.48 µM; in assay [9], 1.67 µM; in [2], 1.91 µM; in assay [3] it was 1.72 µM; in assay [4], 1.64 µM; in [5] it was 1.65 µM. Besides, the GI50 in assay [6] was 2.82 µM; in assay [7], 1.82 µM; in [8], 1.8 µM. In addition, the TGI is 7.81 µM in assay [1]; 3.19 µM in assay [9]; 3.85 µM in assay [2]; 5.95 µM in assay [3]; 3.21 µM in assay [4]; 3.28 µM in [5]. Further, the TGI is 9.06 µM in assay [6], 4.49 µM in [7] and 3.99 µM in assay [8].

Take `O=C1OCc2cc3cc4c(cc3c(-c3ccc5c(c3)OCO5)c21)OCO4` (tested in a mixture with another compound): the TGI in assay [1] was greater than 100 µM; in [9] it was greater than 100 µM; in [2], greater than 100 µM; in [3], 43.5 µM; in assay [4], greater than 100 µM; in assay [5], 15.6 µM. Besides, the TGI in assay [6] is 29.3 µM; in assay [7], greater than 100 µM; in assay [8], greater than 100 µM; in assay [10] it was greater than 100 µM.

`O=C(COc1ccc(Cl)c(Cl)c1)N(Cc1ccccc1)Cc1ccc[n+](Cc2ccc(Cl)cc2S(=O)(=O)F)c1`: the TGI in assay [2] was 94.5 µM; in assay [3] it was greater than 100 µM; in assay [5], 31.9 µM; in assay [6], greater than 100 µM; in [7], greater than 100 µM; in assay [8], greater than 100 µM. In addition, the TGI in assay [10] was determined as 52.4 µM.

Regarding `COc1ccc(NC(=S)N/N=C(\C)c2nc3ncccc3[nH]2)cc1`, the TGI in assay [1] is 24.5 µM; in assay [9], greater than 100 µM; in [2] it was 65.8 µM; in assay [3], 37.7 µM; in assay [4], 28.7 µM; in [5] it was greater than 100 µM. Besides, the TGI in assay [6] is 21.7 µM; in assay [7], greater than 100 µM; in assay [8], greater than 100 µM; in [10], greater than 100 µM.

Regarding `Cl/C(=C\C=Nc1ccc(I)cc1)c1ccc2ccccc2c1`, the TGI was greater than 25.1 µM in assay [1]; 17.8 µM in assay [9]; 44.4 µM in [2]; greater than 85 µM in assay [3]; 30.9 µM in [4]; 36 µM in [5]. Besides, the TGI is greater than 59.7 µM in [6], 32.5 µM in [7], 39.7 µM in [8] and 19 µM in assay [10].

For `CC(=O)NNC(=O)C1CCCCN1` (centres undefined), the TGI in [1], in [2], in assay [3], in assay [4], in assay [5] and in assay [6] was greater than 100 µM each time. For the same compound, the TGI in [8] and in assay [10] was greater than 100 µM each time.

In the case of `CCCC(=O)O.CCCC(=O)O.CCCC(=O)O.CCCC(=O)O.[Rh].[Rh]`, the GI50 in [1] is 0.0277 µM; in assay [2], 0.0448 µM; in [3] it was 0.211 µM; in [4], 0.104 µM; in assay [5], 0.0322 µM; in assay [7], 0.185 µM. For the same compound, the GI50 in assay [10] was 0.0586 µM. Also, the TGI in [1] worked out at 1.08 µM; in [2], 0.351 µM; in assay [3] it was 0.476 µM; in assay [4] it was 0.225 µM; in assay [5], 0.108 µM; in assay [7], 0.589 µM. Further, in assay [10], the TGI was 1.06 µM.

For the compound `Cc1cc(C)nc(SCCc2cccc[n+]2C)n1`, the TGI in assay [1], in assay [9], in assay [2], in assay [3], in assay [4] and in [5] was greater than 100 µM in each case. For the same compound, the TGI in assay [6], in [7] and in assay [8] was greater than 100 µM throughout.

On to `Br/C(=N\Nc1nn[nH]n1)c1ccncc1`, for which the TGI in assay [1], in assay [2], in assay [3], in assay [4], in assay [5] and in assay [6] was greater than 100 µM in each case. The TGI in assay [7], in assay [8] and in assay [10] was greater than 100 µM each time.

In the case of `CC[C@]12C=CCN3CC[C@@]4(c5cc(Br)c(OC)cc5N(C)[C@H]4[C@@](O)(C(=O)N[C@@H](Cc4ccc(O)cc4)C(=O)OC)[C@@H]1O)[C@@H]32`, the TGI in assay [1] is 44 µM; in assay [9], 94.6 µM; in assay [2], 57.8 µM; in [4], 34.8 µM; in assay [5], 30.6 µM; in [7], 62.3 µM. For the same compound, the TGI is greater than 100 µM in [8] and 46.4 µM in assay [10].

With `COc1c(OC/C=C(\C)CCC=C(C)C)ccc2ccc(=O)oc12`, the TGI in [1], in assay [9], in [2], in assay [3], in assay [4] and in assay [5] was greater than 100 µM each time. The TGI in [7], in assay [8] and in [10] was greater than 100 µM throughout.

On to `CC(C)(C)OC(=O)NC1CCC(C(C)(C)C)CC1` (centres undefined), for which the TGI was greater than 100 µM in assay [1]; greater than 100 µM in assay [9]; 36.1 µM in assay [2]; greater than 100 µM in assay [4]; greater than 100 µM in [6]; greater than 100 µM in assay [7]. The TGI in assay [8] is greater than 100 µM.

Regarding `O=C(Oc1ccc(Cl)cc1[N+](=O)[O-])c1ccccc1`, the TGI in assay [1], in assay [9], in assay [2], in assay [3], in assay [4] and in assay [6] was greater than 100 µM in each case. Besides, the TGI in assay [8] and in assay [10] was greater than 100 µM each time.

With `COc1ccc(OC)c(CC(C)N)c1` (centres undefined), the TGI in [1], in assay [9], in assay [4], in assay [6] and in assay [8] was greater than 100 µM each time.

As to `C=CCSSCC=C`, the TGI in assay [1] was greater than 100 µM; in assay [9], greater than 100 µM; in [2] it was 46 µM; in assay [3], greater than 100 µM; in assay [4], greater than 38.6 µM; in [5], greater than 100 µM. For the same compound, the TGI was greater than 92.6 µM in assay [6], greater than 73.2 µM in assay [7], greater than 100 µM in assay [8] and 50.2 µM in [10].

As to `Cn1c2c3ccc(Cl)cc3nc-2c(Cl)c2ccccc21`, the TGI in assay [1] was greater than 100 µM; in [9] it was 20.5 µM; in assay [2], greater than 100 µM; in assay [3] it was 37.1 µM; in [4], 72.3 µM; in assay [5], 97.8 µM. Moreover, the TGI in assay [6] is 62.5 µM; in [7], 69.2 µM; in assay [8] it was greater than 100 µM; in assay [10] it was greater than 100 µM.

For the compound `SC1CCCN(Cc2ccccc2)C1` (centres undefined), the TGI is 31.4 µM in [9]; greater than 100 µM in assay [2]; greater than 100 µM in [3]; 34.7 µM in [4]; greater than 100 µM in assay [5]; greater than 100 µM in assay [6]. The TGI is greater than 100 µM in [7], greater than 100 µM in assay [8] and 71.5 µM in assay [10].

As for `O=C(/C=C/c1ccccc1)N1CCCCC1`, the TGI in assay [1], in assay [9], in [2], in assay [3], in assay [4] and in assay [5] was greater than 100 µM throughout. Also, the TGI in [6], in assay [7], in assay [8] and in assay [10] was greater than 100 µM throughout.

For the origin of these results see PubChem BioAssay (NCI).
